Test results reported in patent publication US20100048606A1, “10-Substituted Cytisine Derivatives and Methods of Use Thereof” (Georgetown University Office of Technology Commercialization, priority 2006, published 2010).
Read-outs that look alike come from different tables or passages of the source.

How the values were obtained:
α3β2 nAChR = target: T1, α3β2 nAChR (Rattus norvegicus, UniProt P04757+P12390); assay: Competition binding with [3H]epibatidine, membrane homogenates of stably transfected cells; details: for potency estimated from few doses: read-out: Estimated Ki α3β2
T1 construct: expressed in transfected cells

α2β2 nAChR = target: T2, α2β2 nAChR (Rattus norvegicus, UniProt P12389+P12390); assay: as above; details: for potency estimated from few doses: read-out: Estimated Ki α2β2
T2 construct: expressed in transfected cells

α3β4 nAChR = target: T3, α3β4 nAChR (Rattus norvegicus, UniProt P04757+P12392); assay: as above; details: for potency estimated from few doses: read-out: Estimated Ki α3β4
T3 construct: expressed in transfected cells

α6β42 = assay: Primary screening, single concentration competition binding assay; details: estimated from single concentration (10 μM) competition binding, read-out: Estimated Ki α6β42
α4β4 nAChR = target: T4, α4β4 nAChR (Rattus norvegicus, UniProt P09483+P12392); assay: Competition binding with [3H]epibatidine, membrane homogenates of stably transfected cells; details: for potency estimated from few doses: read-out: Estimated Ki α4β4
T4 construct: expressed in transfected cells

α4β2 nAChR [1] = target: T5, α4β2 nAChR (Rattus norvegicus, UniProt P09483+P12390); assay: as above; details: for potency estimated from few doses: read-out: Estimated Ki α4β2; for Affinity ratio (α3β4/α4β2): Ki α3β4 divided by Ki α4β2
T5 construct: expressed in transfected cells

α2β4 nAChR = target: T6, α2β4 nAChR (Rattus norvegicus, UniProt P12389+P12392); assay: as above; details: for potency estimated from few doses: read-out: Estimated Ki α2β4
T6 construct: expressed in transfected cells

α4β2 nAChR's = target: T7, α4β2 nAChR's (Homo sapiens, UniProt P17787+P43681); assay: 86Rb+ efflux assay, agonist activity; type: cell-based; details: tested at 0.1, 1, 10 and 100 μM
T7 construct: expressed in transfected cells

α3β4 nAChR subtype = target: T8, α3β4 nAChR subtype (Rattus norvegicus, UniProt P04757+P12392); assay: Antagonist activity, block of nicotine stimulated responses; type: cell-based; details: for Inhibition of the function of the α3β4 nAChR subtype: at 100 μM; for Block of nicotine stimulated responses at α3β4: concentrations up to 10 μM
T8 construct: expressed in transfected cells; host or cells: KXα3β4R2 cells (named in the result head)
Protocol: (§1) Compounds 15 and 17a are antagonists of the α4β2 nAChR subtype. […] Compounds 15 and 17a were tested for their antagonist activities at the α4β2 and α3β4 receptors at concentrations from 0.1 μM to 100 μM. […] This is typical of most classical nicotinic ligands.^34

α4β2 nAChR subtype = target: T9, α4β2 nAChR subtype (Homo sapiens, UniProt P17787+P43681); assay: as above; type: cell-based; details: for inhibition at 100 µM: read-out: Inhibition of the function of the α4β2 nAChR subtype; for Block of nicotine stimulated responses at α4β2: concentrations up to 10 μM
T9 construct: expressed in transfected cells
Protocol: as §1

[2] = target: nAChRs of rat forebrain tissue (Rattus norvegicus, UniProt P09483+P12390); type: binding
α4β2 nAChR [3] = target: T10, α4β2 nAChR (Homo sapiens, UniProt P17787+P43681); details: read-out: EC50 (partial agonist at α4β2 nAChR); reported in the literature; cited from earlier work
α4β2 nAChR [4] = target: T10, α4β2 nAChR; details: read-out: Ki (binding affinity); reported in the literature; cited from earlier work
[5] = primary screening, estimated from single concentration (10 μM) competition binding
[6] = estimated from single run concentration binding assay

O=c1ccccn1CC1CCN(Cc2ccccc2)CC1 [Compound 7b, 1-[(1-Benzyl-piperidin-4-yl)methyl]pyridin-2(1H)-one]
potency estimated from few doses (α3β2 nAChR; [5]): 7.3 µM | potency estimated from few doses (α2β2 nAChR; [5]): 26 µM | potency estimated from few doses (α3β4 nAChR; [5]): 620 µM | potency estimated from few doses (α6β42): 470 µM | potency estimated from few doses (α4β4 nAChR; [5]): 4.5 µM | potency estimated from few doses (α4β2 nAChR [1]; [5]): 1.3 µM | potency estimated from few doses (α2β4 nAChR; [5]): 440 µM

Cc1cc2n(c(=O)c1)CC1CNCC2C1 (racemic) [rac-15, 10-Methyl-1,2,3,4,5,6-hexahydro-1,5-methano-pyrido[1,2-a][1,5]diazocin-8-one]
Ki (α3β2 nAChR): 0.54 µM | Agonist activity at α4β2 (86Rb+ efflux) (α4β2 nAChR's): did not show agonist activity | Ki (α2β2 nAChR): 0.0075 µM | Ki (α3β4 nAChR): 6.7 µM | Ki (α4β4 nAChR): 0.038 µM | Inhibition of the function of the α3β4 nAChR subtype (α3β4 nAChR subtype): only slightly inhibited | Block of nicotine stimulated responses at α3β4 (α3β4 nAChR subtype): did not significantly block nicotine stimulated responses | inhibition at 100 µM (α4β2 nAChR subtype): > 50% | Block of nicotine stimulated responses at α4β2 (α4β2 nAChR subtype): did not significantly block nicotine stimulated responses | Ki (α4β2 nAChR [1]): 0.0019 µM | Affinity ratio (α3β4/α4β2) (α4β2 nAChR [1]): 3526 | Affinity ratio (α3β4/α4β2) (α4β2 nAChR [1]; listed as 15): > 3000 | Ki (α2β4 nAChR): 0.18 µM

COC(=O)[C@H]1C2CNCC(C2)c2cccc(=O)n21 (single isomer, unassigned; (-)) [(−)-22, 8-Oxo-1,3,4,5,6,8-hexahydro-2H-1,5-methano-pyrido[1,2-a][1,5]diazocine-6-carboxylic acid methyl ester]
Ki (α3β2 nAChR; mean of three to five independent measurements, [3H]epibatidine, read-out: Ki α3β2): 250 µM | Ki (α2β2 nAChR; mean of three to five independent measurements, [3H]epibatidine, read-out: Ki α2β2): 17 µM | Ki (α3β4 nAChR; mean of three to five independent measurements, [3H]epibatidine, read-out: Ki α3β4): 320 µM | Ki (α4β4 nAChR; mean of three to five independent measurements, [3H]epibatidine, read-out: Ki α4β4): 33 µM | Affinity ratio (α3β4/α4β2) (α4β2 nAChR [1]): 13 | Ki (α4β2 nAChR [1]; mean of three to five independent measurements, [3H]epibatidine, read-out: Ki α4β2): 24 µM | Ki (α2β4 nAChR; mean of three to five independent measurements, [3H]epibatidine, read-out: Ki α2β4): 75 µM | Ki ([2]; mean of three to five independent measurements): 48 µM

O=c1cc(CO)cc2n1CC1CNCC2C1 (racemic) [rac-17a, 10-(Hydroxymethyl)-1,2,3,4,5,6-hexahydro-1,5-methano-pyrido[1,2-a][1,5]diazocin-8-one]
Ki (α3β2 nAChR): 0.467 µM | Agonist activity at α4β2 (86Rb+ efflux) (α4β2 nAChR's): did not show agonist activity | Ki (α2β2 nAChR): 0.032 µM | Ki (α3β4 nAChR): 10 µM | Ki (α4β4 nAChR): 0.068 µM | Inhibition of the function of the α3β4 nAChR subtype (α3β4 nAChR subtype): only slightly inhibited | Block of nicotine stimulated responses at α3β4 (α3β4 nAChR subtype): did not significantly block nicotine stimulated responses | inhibition at 100 µM (α4β2 nAChR subtype): > 50% | Block of nicotine stimulated responses at α4β2 (α4β2 nAChR subtype): did not significantly block nicotine stimulated responses | Ki (α4β2 nAChR [1]): 0.011 µM | Affinity ratio (α3β4/α4β2) (α4β2 nAChR [1]): 909 | Ki (α2β4 nAChR): 0.3 µM

O=c1cccc2n1C[C@@H]1CNC[C@H]2C1 [(−)-Cytisine (4), (−)-Cytisine]
EC50 (α4β2 nAChR [3]): ~1 µM | Affinity ratio (α3β4/α4β2) (α4β2 nAChR [1]): 144 | Ki (α4β2 nAChR [4]): ~0.001 µM

10-Cyclohexyl(methoxymethyl)-1,2,3,4,5,6-hexahydro-1,5-methano-pyrido[1,2-a][1,5]diazocin-8-one [rac-25]
potency estimated from few doses (α3β2 nAChR; [6]): 0.8 µM | potency estimated from few doses (α2β2 nAChR; [6]): < 0.017 µM | potency estimated from few doses (α3β4 nAChR; [6]): 25 µM | potency estimated from few doses (α4β4 nAChR; [6]): 0.15 µM | Affinity ratio (α3β4/α4β2) (α4β2 nAChR [1]): >862 | potency estimated from few doses (α4β2 nAChR [1]; [6]): < 0.029 µM | potency estimated from few doses (α2β4 nAChR; [6]): 0.78 µM | potency estimated from few doses ([2]; estimated from single run concentration binding assay, read-out: Estimated Ki Forebrain): 0.17 µM

CN1CCCC(Cn2ccccc2=O)C1 (centres unmarked) [Compound 6b, 1-[(1-Methylpiperidin-3-yl)methyl]pyridin-2(1H)-one]
potency estimated from few doses (α3β2 nAChR; [5]): 6 µM | potency estimated from few doses (α2β2 nAChR; [5]): 19 µM | potency estimated from few doses (α3β4 nAChR; [5]): 160 µM | potency estimated from few doses (α6β42): 76 µM | potency estimated from few doses (α4β4 nAChR; [5]): 2.6 µM | potency estimated from few doses (α4β2 nAChR [1]; [5]): 0.98 µM | potency estimated from few doses (α2β4 nAChR; [5]): 180 µM

O=c1ccccn1CC1CCCNC1 (centres unmarked) [Compound 6a, 1-(Piperidin-3-ylmethyl)pyridin-2(1H)-one]
potency estimated from few doses (α3β2 nAChR; [5]): 18.7 µM | potency estimated from few doses (α2β2 nAChR; [5]): 4.63 µM | potency estimated from few doses (α3β4 nAChR; [5]): 535 µM | potency estimated from few doses (α6β42): 253 µM | potency estimated from few doses (α4β4 nAChR; [5]): 5.55 µM | potency estimated from few doses (α4β2 nAChR [1]; [5]): 1.78 µM | potency estimated from few doses (α2β4 nAChR; [5]): 159 µM
